Data from US20050043178A1, “Herbicidal and bacteriostatic compounds from centaurea maculosa” (Colorado State University Research Foundation, priority 2001, published 2005).
“Also recorded” adds a separate entry of the source.

Columns and labels:
[1] = tested on: Arabidopsis thaliana shoot cultures; assay: Phytotoxicity (MIC, shoot and root differentiation) on Arabidopsis thaliana in MS basal medium; type: in vivo; conditions: for minimum inhibitory concentration (MIC): Arabidopsis thaliana shoot cultures in vitro
Procedure: (§1) Catechin and 2, 4-D were administered in MS basal medium at different concentration range (1-200 μg ml^−1) to check for the minimum inhibitory concentration (MIC). i) 10 μg ml^−1; ii) 60 μg ml^−1; iii) 100 μg ml^−1. • B) Effect of catechin on shoot and root differentiation in A. thaliana plants on the 14th day. Catechin was compared for phytoxicity against 2, 4-D and was administered at 100 μg ml^−1 concentration in MS basal medium (5 ml). Treatments were as follows: 1) Untreated control; 2) (+)-catechin; 3) (−)-catechin; 4) (±)-catechin; 5) (+/−) co-administered catechin; 6) (±) catechin isolated from root exudates of C. maculosa; 7) 2, 4-D. [Means of different letters at the top of each bar indicate significant difference (p<0.05) (SEM±52df)]. • C) Antibacterial activity of (+)-catechin on different bacterial strains. i) Tube antibacterial assay. 1) Control (without (+)-catechin); 2) (+)-catechin 100 μg ml^−1; 3) (+)-catechin 150 μg ml^−1; 4) (+)-catechin 200 μg ml^−1. Bacterial cultures were grown overnight at 24° C. in liquid LB media to an optical density of 0.2 at 600 nm. Different concentrations (100-200 μg ml^−1) of (+)-catechin were administered to the bacteria-containing LB media. Optical density at 600 nm was checked after 24 hrs of incubation to measure bacterial inhibition in tubes. Antibacterial activity was assayed on both tubes and 35 mm plates. ii) Antibacterial activity of (+)-catechin on Pseudomonas fluorescens analyzed in a petri dish assay. Treatments on petri dish refers to the following concentrations: 1) Methanol ((+)-catechin solvent) was used as a control; II) (−)-catechin (100 μg ml^−1); III) (+)-catechin (100 μg/ml); IV) (±)-catechin (200 μg ml^−1); V) (±)-catechin (200 μg ml^−1) isolated from root exudates of C. maculosa.
Root exudates of in vitro-grown C. maculosa plants were assayed for their effects on the phenotypic response and germnination efficiency of various weeds, including Linaria dalmatica (Dalmatian toadflax), Verbascum thapsus (common mullein), Bromos tectorum (downy brome), Kochia scoparia (kochia), Centaurea diffusa (diffuse knapweed), the model plant Arabidopsis thaliana and crops such as wheat (Triticum aestivum) and tomato (Lycopersicon esculentum). Ten day old seedlings and seeds of C. maculosa, L. dalmatica, V. thapsus, B. tectorum, K. scoparia, C. diffusa, A. thaliana, T. aestivum and L. esculetum were placed on MS basal medium in petri dishes after initial surface sterilization. Petri dishes were kept under a 16 hour light and 8 hour dark photoperiod in an incubator (Lab-Line). An additional objective was to check the effect of allelochemicals from C. maculosa on growth and differentiation of food crops such as Triticum aestivum (Wheat) and Lycopersicon esculetum (Tomato). This was of interest as wheat is known to produce an allelopathic effect in its root exudates (H. Wu, T. Haig, J. Prateley, D. Lemerle, M. An, J. Food Agric Chem. 48, 5321 (2000)). Root exudates collected from non-elicited and elicited cultures of C. maculosa were administered in different concentrations (1-3 ml v/v) over the surface sterilized seeds and seedlings to analyze their phytotoxic effects. […] After incubation, growth parameters such as length of shoots, number of shoots and length of primary root of the treated and untreated plants were measured. […]

C. maculosa = assay: Effect on C. maculosa itself (autotoxicity); type: in vivo, Centaurea maculosa; conditions: FIG. 1(b and c)
Procedure: (§2) Root exudates collected from non-elicited cultures of C. maculosa were administered in different concentrations (1-3 ml v/v) in the MS basal liquid media containing different seedlings to analyze phenotypic explant response. ii) Effect of fungal cell wall (CWE) elicited root exudates of C. maculosa on shoots and root differentiation of different weeds and crop plants on 14th day. Fungal cell wall extracts (CWE) from Phytophthora cinnamoni and Rhizoctonia solani were used. Data represents the percent inhibition as compared to the untreated control in shooting and rooting response in various tested seedlings against non-elicited and elicited root exudates of C. maculosa. The seedlings tested against C. maculosa exudates were as follows:1: C. maculosa; 2: L. dalmatica; 3: V. thapsus; 4: B. tectorum, 5: K. scoparia; 6: C. diffusa; 7: A. thaliana 8: T. aestivum; 9: L. esculentum. [Means of different letters at the top of each bar indicate significant difference (p<0.05) (SEM±52df)]. • B) Effect of purified HPLC-fraction from C. maculosa root exudates on morphological differentiation of various weeds and food crops. HPLC peaks were collected and administered into 5 ml MS basal medium at 100 μg ml^−1 concentration; fractions were added in different permutations. i) C. maculosa; ii) C. diffusa; iii) K scoparia; iv) L. dalmatica; v) A.thaliana; vi) T. aestivum. […]

[2] = tested on: various weeds and crop plants; assay: Phytotoxic effect on seedlings of weeds and crop plants; type: in vivo; conditions: incl. C. diffusa
Procedure: as §2

soil borne bacteria = assay: Antibacterial assay on soil borne bacteria (six strains); type: cell-based; conditions: six bacterial strains / soil-borne pathogens tested
Procedure: as §1
(§3) Antibacterial plate assay was performed on a bacterial culture grown overnight; both the enantiomers and the racemic catechin were added to the paper discs and allowed to dry under laminar hood conditions. […] Visual observations for inhibition zone were recorded after 24 hrs. […]

[3] = tested on: Agrobacterium rhizogenes (15834); assay: Tube antibacterial assay (OD 600 nm after 24 hrs); type: cell-based; conditions: even at higher concentrations
Procedure: as §1, §3

Erwinia carotovora = assay: Tube antibacterial assay (OD 600 nm after 24 hrs); type: cell-based; conditions: 100-200 μg/ml
Procedure: as §1, §3

Xanthomonas campestris = assay: Tube antibacterial assay (OD 600 nm after 24 hrs); type: cell-based; conditions: 100-200 μg/ml
Procedure: as §1, §3

Pseudomonas fluorescens = assay: Tube and plate antibacterial assay; type: cell-based; conditions: 100-200 μg/ml, 24 hrs
Procedure: Catechin and 2, 4-D were administered in MS basal medium at different concentration range (1-200 μg ml^−1) to check for the minimum inhibitory concentration (MIC). i) 10 μg ml^−1; ii) 60 μg ml^−1; iii) 100 μg ml^−1. • B) Effect of catechin on shoot and root differentiation in A. thaliana plants on the 14th day. Catechin was compared for phytoxicity against 2, 4-D and was administered at 100 μg ml^−1 concentration in MS basal medium (5 ml). Treatments were as follows: 1) Untreated control; 2) (+)-catechin; 3) (−)-catechin; 4) (±)-catechin; 5) (+/−) co-administered catechin; 6) (±) catechin isolated from root exudates of C. maculosa; 7) 2, 4-D. [Means of different letters at the top of each bar indicate significant difference (p<0.05) (SEM±52df)]. • C) Antibacterial activity of (+)-catechin on different bacterial strains. i) Tube antibacterial assay. […] Antibacterial activity was assayed on both tubes and 35 mm plates. ii) Antibacterial activity of (+)-catechin on Pseudomonas fluorescens analyzed in a petri dish assay. […]
as §3

Molecule: Oc1cc(O)c2c(c1)OC(c1ccc(O)c(O)c1)C(O)C2 (racemic) [(±)-catechin]
- minimum inhibitory concentration (MIC) [1]: about 100 μg/ml
- effect compared with root exudated (±)-catechin ([1]; commercially available racemate, FIG. 2(a and b)): same effect as root exudated (±)-catechin
- resistance of C. maculosa (C. maculosa): strongly resistant

Molecule: (−)-catechin [(−)catechin]
- doses accounting for the allelochemical activity (as low as) ([1]; A. thaliana, FIGS. 2 a, b): 50 to 60 µg/mL
- spectrum of phytotoxicity / allelochemical activity [2]: broad-spectrum phytotoxicity
- antibacterial activity (soil borne bacteria): failed to show any antibacterial activity
- antibacterial activity (soil borne bacteria; listed as (−)-catechin): does not show

Molecule: Oc1cc(O)c2c(c1)O[C@H](c1ccc(O)c(O)c1)[C@@H](O)C2 [(+)-catechin]
- allelochemical activity / phytotoxicity ([1]; A. thaliana, FIGS. 2 a, b): not phytotoxic; also recorded: did not show allelochemical activity
- inhibition of growth [3]: not affected
- inhibition of growth (decrease in optical density) (Erwinia carotovora): distinct inhibition of growth
- inhibition of growth (decrease in optical density) (Xanthomonas campestris): distinct inhibition of growth
- inhibition of growth (decrease in optical density) (Pseudomonas fluorescens): distinct inhibition of growth
- antibacterial activity (soil borne bacteria): antibacterial activity against root infesting pathogens; also recorded: most showed a degree of inhibition

Molecule: O=C(O)COc1ccc(Cl)cc1Cl [2,4-D, 2,4-dichlorophenoxyacetic acid, reference compound]
- minimum inhibitory concentration (MIC) [1]: 10 µg/mL
